TNBCType train and TNBCType test data for 54 molecules are collected here from patent US20250140406A1, “CLASSIFYING TUMORS AND PREDICTING RESPONSIVENESS” (Oncocyte Corporation, priority 2022, published 2025).

For one assay, the system named is cancer cell lines classified IM, MSL, M. Put plainly: PRISM screen compound sensitivity correlated with IM, MSL and M subtype of cell lines (101 gene signature). It is filed as cell-based. Particulars: subtype (IM, MSL or M) assigned to the compound by negative correlation of PRISM sensitivity with subtype; training cell set (371 cell lines), 101 gene signature.
For `Cc1cc(Nc2cc(N3CCN(C)CC3)nc(/C=C/c3ccccc3)n2)n[nH]1` [ENMD-2076], the TNBCType train entry is given as “MSL”.

For `CN(C)c1cccc(-c2c3c(=O)n(-c4ccccc4Cl)[nH]c3cc(=O)n2C)c1` [GKT137831], the TNBCType train result was “MSL”.

For `CCCCOc1nc(N)c2c(n1)N(Cc1cccc(CN3CCCC3)c1)CC(=O)N2` [GS-9620], the TNBCType train result is given as “MSL”.

For the molecule `O=C(O)CCc1ccc(NCc2cccc(Oc3ccccc3)c2)cc1` [GW-9508], the TNBCType train result is recorded as “MSL”.

For the molecule `CC(C)NC(=O)COc1cccc(-c2nc(Nc3ccc4[nH]ncc4c3)c3ccccc3n2)c1` [KD025], the TNBCType train result is recorded as “MSL”.

As for `Nc1cc(F)ccc1NC(=O)/C=C/c1cnn(C/C=C/c2ccccc2)c1` [RGFP966], the TNBCType train result was “MSL”.

As to `Cc1ccc(-c2ccc(C)cn2)nc1` [abametapir], the TNBCType train result was “MSL”.

For `CC1(C)S[C@@H]2[C@H](NC(=O)[C@H](N)c3ccccc3)C(=O)N2[C@H]1C(=O)O` [ampicillin], the TNBCType train result was “MSL”.

Turning to `Nc1ccn([C@H]2CO[C@@H](CO)S2)c(=O)n1` [apricitabine], the TNBCType train entry is listed as “MSL”.

Consider `CCN(CC)CCn1c(=O)c(Cc2ccc(OC)cc2)nc2ccccc21` [caroverine], for which the TNBCType train result is given as “MSL”.

On to `N=C(N)N1CCc2ccccc2C1` [debrisoquin], for which the TNBCType train result was “MSL”.

With `NS(=O)(=O)c1cc(Cl)c(Cl)c(S(N)(=O)=O)c1` [diclofenamide], the TNBCType train entry is reported as “MSL”.

Take `COc1cc(OC)cc(N(CCNC(C)C)c2ccc3ncc(-c4cnn(C)c4)nc3c2)c1` [erdafitinib]: the TNBCType train result is on record as “MSL”.

Take `COc1cc([C@@H]2c3cc4c(cc3[C@@H](O[C@@H]3O[C@@H]5CO[C@@H](C)O[C@H]5[C@H](O)[C@H]3O)[C@H]3COC(=O)[C@H]23)OCO4)cc(OC)c1OP(=O)(O)O` [etoposide-phosphate]: the TNBCType train entry was “MSL”.

Take `Oc1ccc(C2=Cc3ccc(O)cc3OC2)cc1` [idronoxil]: the TNBCType train result is given as “MSL”.

With `COc1c2occc2c(OC)c2c(=O)cc(C)oc12` [khellin], the TNBCType train entry is reported as “MSL”.

Still in this assay, the particulars now being: subtype (IM, MSL or M) the PRISM compound sensitivity is associated with; training cell set (371 cell lines); 101 gene signature.
In the case of `CN1CC2c3ccccc3Oc3ccc(Cl)cc3C2C1` (centres unmarked) [asenapine], the TNBCType train entry is reported as “MSL”.

`O=C(/C=C/c1ccc(O)c(O)c1)OCCc1ccccc1` [caffeic-acid-phenethyl-ester]: the TNBCType train entry is listed as “MSL”.

For `O=C(Cn1ccnc1[N+](=O)[O-])NCCO` [etanidazole], the TNBCType train result is “MSL”.

Turning to `CCOC(=O)c1ncn2c1CN(C)C(=O)c1cc(F)ccc1-2` [flumazenil], the TNBCType train result is listed as “MSL”.

Regarding `O=P(O)(O)CP(=O)(O)O` [medronic-acid], the TNBCType train entry is listed as “MSL”.

`CC[C@H](C)C(=O)O[C@H]1CCC=C2C=C[C@H](C)[C@H](CC[C@@H]3C[C@@H](O)CC(=O)O3)[C@H]21` [mevastatin]: the TNBCType train result is listed as “MSL”.

Still in this assay, the particulars now being: subtype (IM, MSL or M) with which PRISM compound sensitivity is negatively correlated; training cell set, 101 gene signature.
Consider `Cc1ccc2c(=O)c3cccc(CC(=O)O)c3oc2c1C` [ASA-404], for which the TNBCType train result is on record as “MSL”.

Take `O=C(Nc1ccccc1F)N[C@H]1N=C(c2ccccc2)c2ccccc2NC1=O` [RSV604]: the TNBCType train entry is given as “MSL”.

Take `OC1CCC(Nc2nc(-c3ccccc3)nc3[nH]ccc23)CC1` (centres unmarked) [SLV-320]: the TNBCType train entry is recorded as “MSL”.

For the molecule `CCOC(=O)COc1ccc2c(c1)C[C@@H](NC[C@H](O)c1cccc(Cl)c1)CC2` [amibegron], the TNBCType train entry is “MSL”.

For `CC(=O)OCC1=C(C(=O)O)N2C(=O)[C@@H](NC(=O)Cc3cccs3)[C@H]2SC1` [cephalothin], the TNBCType train result is “MSL”.

In the case of `CC(C)NC(=N)NC(=N)Nc1ccc(Cl)c(Cl)c1` [chlorproguanil], the TNBCType train entry is listed as “MSL”.

Consider `N#CCC(=O)NN` [cyacetacide], for which the TNBCType train result is listed as “MSL”.

In the case of `Cc1ccc2c(c1)[C@]13CCCC[C@@H]1[C@H](C2)N(C)CC3` [dimemorfan], the TNBCType train result is on record as “MSL”.

For `N[C@H](C(=O)O)[C@H](O)c1ccc(O)c(O)c1` [droxidopa], the TNBCType train result was “MSL”.

Take `CSc1ccc(C(=O)c2[nH]c(=O)[nH]c2C)cc1` [enoximone]: the TNBCType train result was “MSL”.

Turning to `CC1=C(CC(=O)O)c2cc(F)ccc2/C1=C\c1ccc(S(C)(=O)=O)cc1` [exisulind], the TNBCType train entry is given as “MSL”.

`O=C(O)c1ccccc1OP(=O)(O)O` [fosfosal]: the TNBCType train entry is on record as “MSL”.

For `O=C1NC(c2ccccc2)(c2ccccc2)C(=O)N1COP(=O)(O)O` [fosphenytoin], the TNBCType train entry is “MSL”.

Take `CC(C)(CO)CCCCCCC(C)(C)CO` [gemcadiol]: the TNBCType train result is on record as “MSL”.

As to `COc1cc2nccc(Oc3ccc(NC(=O)NC4CC4)c(Cl)c3)c2cc1C(N)=O` [lenvatinib], the TNBCType train result is “MSL”.

For `CCN1CCC[C@H]1CNC(=O)c1cc(S(N)(=O)=O)ccc1OC` [levosulpiride], the TNBCType train entry is listed as “MSL”.

Turning to `CNC(=O)c1cccc2cc(Oc3ccnc4cc(OCC5(N)CC5)c(OC)cc34)ccc12` [lucitanib], the TNBCType train entry is “MSL”.

Still in this assay, the particulars now being: subtype (IM, MSL or M) with which compound sensitivity is negatively correlated; training cell set (371 cell lines), 101 gene signature.
On to `CC1=C(C(=O)Nc2cc3cn[nH]c3cc2F)C(c2ccc(C(F)(F)F)cc2)CC(=O)N1` (centres unmarked) [GSK429286A], for which the TNBCType train result is given as “MSL”.

For `CC(O)c1cc(C(=O)N[C@@H](C)Cn2ccc(-c3ccc(C#N)c(Cl)c3)n2)[nH]n1` (some centres unmarked) [ODM-201], the TNBCType train result is recorded as “MSL”.

Consider `CC(CC(C(N)=O)(c1ccccc1)c1ccccc1)N(C)C` (centres unmarked) [aminopentamide], for which the TNBCType train result is “MSL”.

As for `CCOC(=O)OC(C)OC(=O)[C@@H]1N2C(=O)[C@@H](NC(=O)[C@H](N)c3ccccc3)[C@H]2SC1(C)C` (some centres unmarked) [bacampicillin], the TNBCType train result is recorded as “MSL”.

As to `O=C(/C=C/c1ccc(O)c(O)c1)c1ccc(O)cc1O` [butein], the TNBCType train entry is listed as “MSL”.

For the molecule `CC(C)NCC(O)COc1cccc2[nH]c3ccccc3c12` (centres unmarked) [carazolol], the TNBCType train entry was “MSL”.

In the case of `Oc1c(Cl)cc(Cl)c2cccnc12` [chloroxine], the TNBCType train result was “MSL”.

For the molecule `CC(C)(Oc1ccc(Cl)cc1)C(=O)O` [clofibric-acid], the TNBCType train result is reported as “MSL”.

Regarding `O=C1c2cccc(O)c2C(=O)c2c(O)cccc21` [dantron], the TNBCType train result is recorded as “MSL”.

Take `CC[C@H](CC[C@@H](C)[C@H]1CC[C@H]2[C@@H]3CC=C4C[C@@H](O[C@@H]5O[C@H](CO)[C@@H](O)[C@H](O)[C@H]5O)CC[C@]4(C)[C@H]3CC[C@]12C)C(C)C` [daucosterol]: the TNBCType train result is recorded as “MSL”.

With `O=C(OCC(O)CO)c1ccccc1Nc1ccnc2c(C(F)(F)F)cccc12` (centres unmarked) [floctafenine], the TNBCType train entry is “MSL”.

`O=c1[nH]cnc2nc[nH]c12` [hypoxanthine]: the TNBCType train result is “MSL”.

Consider `C[C@@H](c1nc(-c2ccc(C#N)cc2)cs1)[C@](O)(Cn1cncn1)c1cc(F)ccc1F` [isavuconazole], for which the TNBCType train result is listed as “MSL”.

For `CC(C(=O)O)c1cccc(C(=O)c2ccccc2)c1` (centres unmarked) [ketoprofen], the TNBCType train result is recorded as “MSL”.

Turning to `Cc1[nH]cnc1-c1ccc(Cl)cc1` [lofemizole], the TNBCType train entry is “MSL”.

Staying with this assay, now noted: subtype (IM, MSL, M) with which compound sensitivity correlates; test set.
Consider `O=C(Nc1ccccc1F)N[C@H]1N=C(c2ccccc2)c2ccccc2NC1=O` [RSV604], for which the TNBCType test entry is listed as “MSL”.

Regarding `COc1cc(OC)cc(N(CCNC(C)C)c2ccc3ncc(-c4cnn(C)c4)nc3c2)c1` [erdafitinib], the TNBCType test entry was “MSL/M”.

Staying with this assay, now noted: subtype (IM, MSL, M) with which compound sensitivity correlates; training set.
Turning to `O=C(Nc1ccccc1F)N[C@H]1N=C(c2ccccc2)c2ccccc2NC1=O` [RSV604], the TNBCType train result is given as “MSL”.

In the case of `COc1cc(OC)cc(N(CCNC(C)C)c2ccc3ncc(-c4cnn(C)c4)nc3c2)c1` [erdafitinib], the TNBCType train entry is given as “MSL”.

The same assay, now with this note: subtype with which compound sensitivity correlates; test cell lines.
For the molecule `COc1cc(OC)cc(N(CCNC(C)C)c2ccc3ncc(-c4cnn(C)c4)nc3c2)c1` [erdafitinib], the TNBCType test result is recorded as “MSL/M”.

Take `CC[C@H](C)C(=O)O[C@H]1CCC=C2C=C[C@H](C)[C@H](CC[C@@H]3C[C@@H](O)CC(=O)O3)[C@H]21` [mevastatin]: the TNBCType test result is “MSL”.

The same assay, now with this note: subtype with which compound sensitivity correlates; training cell lines.
On to `COc1cc(OC)cc(N(CCNC(C)C)c2ccc3ncc(-c4cnn(C)c4)nc3c2)c1` [erdafitinib], for which the TNBCType train entry is given as “MSL”.

Take `CC[C@H](C)C(=O)O[C@H]1CCC=C2C=C[C@H](C)[C@H](CC[C@@H]3C[C@@H](O)CC(=O)O3)[C@H]21` [mevastatin]: the TNBCType train entry was “MSL”.
